Data set [1] is described as follows: Pharmacokinetics after a single oral dose in healthy male volunteers (plasma, HPLC-MS/MS). The data set is classed as in vivo, human. The procedure:
(§1) The pharmacokinetics after a single oral dose of the dihydrochloride salt of Compound D ((2R)-1-[3,5-bis(trifluoromethyl)benzoyl]-2-(1H-indol-3-ylmethyl)-4-{[5-(morpholinomethyl)-2H-1,2,3-triazol-4-yl]methyl}piperazine-dihydrochloride) were assessed in healthy male volunteers. Pharmacodynamic effects were also evaluated by measuring the antagonism of Substance P-induced venodialation using the hand vein compliance technique.
Nineteen healthy male non-smokers participated in a randomized, double-blind, placebo-controlled, cross-over study after each gave written informed consent. Only healthy volunteers without concurrent drug use were included in the study. […] Further exclusion criteria were: a history of allergies, known conditions causing endothelial dysfunction as diabetes, hyperlipidemia, arterial hypertension, hyperhomocysteinemia, and smoking, regular medication or treatment with drugs within the last 2 weeks, acute or chronic illness, and drug or alcohol abuse.
Next, Compound D as described herein (250 mg and 25 mg quinine sulphate) or placebo (25 mg quinine sulphate), both dissolved in water for injection and mint syrup, were administered as an oral solution. Quinine was added for blinding to mimic the bitter taste of Compound D and mint syrup to disguise the slightly yellowish colour as well as bitter taste. The infusion of Substance P (same dose as before study drug administration) was repeated at the following time points: 0.5 h, 1.25 h, 2 h, 2.75 h, 3.5 h, and 4.25 h after dosing. Each peptide application was separated by a wash-out phase of 45 min to avoid the occurrence of tolerance.
Venous blood samples for Compound D were taken 0.25 h before as well as 0.25 h, 0.5 h, 0.75 h, 1 h, 1.25 h, 2.0 h, 2.75 h, 3.5 h, 4.25 h, 6 h, 8 h, 12 h, and 24 h after administration. Blood was drawn into vials containing dry heparin, immediately stored on ice (+4° C.) and plasma was separated within 30 min at 3500 rpm for 10 min. The samples were stored at −20° C. until analysis. When time points of pharmacodynamic (hand vein compliance method) and pharmacokinetic measurements coincided the pharmacodynamic measurements were first finished before blood samples were taken, accepting a delay for pharmacokinetic sampling of about 5 min.
The plasma samples were then analyzed by extracting Compound D and its internal standard from plasma with diethylether, concentration and injection into an HPLC system with MS/MS detection. Accuracy and precision were within specifications; bias was <12%; the inter-day coefficient of variation was <14%. The lower limit of quantification was set at 0.2 ng/ml.
(§2) Source verification of all data documented in case report forms was performed by an independent clinical monitor. Nineteen individuals were randomized and thus included in the safety analysis. Only the randomized participants who completed both dosing sessions according to protocol were included in the pharmacodynamic analysis (n=17). Two participants had to be withdrawn due to methodological problems during hand vein measurements. One of these two was exposed to Compound D and complete pharmacokinetic data were obtained leading to data sets of 18 participants for pharmacokinetic analysis.
The area under the effect-time curve (AUCe) was calculated according to the trapezoidal rule. Statistical analysis of AUCe was performed using a mixed model analysis of variance (ANOVA) including the factors subject, sequence, period, and treatment. Pharmacokinetic calculations were performed using WinNonlin Professional 4.0.1 for Windows (Pharsight Corporation, Mountain View, Calif. 94040, USA). Differences in vital signs and dose-rates were assessed with Wilcoxon signed rank test, unless stated otherwise. Data are expressed as mean±SEM. A p-value of less than 0.05 was considered significant.

The target in another data set is T1, NK-1 receptor (Homo sapiens, UniProt P25103).
T1 construct: measuring the antagonism of Substance P-induced venodialation using the hand vein compliance technique; from tissue; host or cells: dorsal hand vein of healthy male volunteers, in vivo
T1 sequence (P25103 whole entry): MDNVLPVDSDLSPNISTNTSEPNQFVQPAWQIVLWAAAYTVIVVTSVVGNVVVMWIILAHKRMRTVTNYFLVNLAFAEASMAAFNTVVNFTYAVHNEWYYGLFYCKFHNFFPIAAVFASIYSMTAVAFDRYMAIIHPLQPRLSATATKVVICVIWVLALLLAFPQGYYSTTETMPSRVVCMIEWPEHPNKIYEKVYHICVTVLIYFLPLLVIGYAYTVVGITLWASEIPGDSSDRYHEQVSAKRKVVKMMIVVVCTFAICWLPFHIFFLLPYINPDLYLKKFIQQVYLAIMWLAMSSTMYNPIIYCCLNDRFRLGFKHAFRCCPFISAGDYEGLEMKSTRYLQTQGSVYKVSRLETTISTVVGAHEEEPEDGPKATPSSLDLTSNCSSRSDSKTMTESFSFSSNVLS
The data set is described as follows: Antagonism of Substance P-induced venodilation, dorsal hand vein compliance technique. The data set is classed as in vivo. The procedure: as §1
The participants abstained from alcohol for at least 24 hours and from methylxanthine-containing beverages for at least 12 hours before the measurements of hand vein compliance were made. […] Venodilator responses were investigated in a quiet room maintained at a constant temperature between 23 and 25° C. using the dorsal hand vein compliance technique according to Aellig (See W. H. Aellig, A new technique for recording compliance of human hand veins. 1981. Br J Clin Pharmacol 2004; 58:S768-74) with modifications as described previously (Fricker R, et al., Endothelial venodilator response in carriers of genetic polymorphisms involved in NO synthesis and degradation. Br J Clin Pharmacol 2004; 58:169-77).
Hand vein compliance measurements started in the morning and the participants were asked to remain in a supine position throughout the study. The hand under investigation was placed on a vacuum pillow sloping upwards at an angle of 30° from horizontal. All vasoactive compounds were administered through a butterfly needle at a constant flow rate (0.25 ml·min^−1) into the vein under investigation. In each participant, the same hand vein was used for both study phases. Changes of the diameter of the vein were recorded using a linear variable differential transformer (Schaevitz®, Type 100 MHR, Pennsauken, N.J., USA) with a freely movable core (weight 0.5 g) resting over the centre of the vein under investigation. Transformer signals were amplified by a Schaevitz® CAS series signal conditioner and the output was recorded on a strip-chart recorder (LKB 2210 recorder, LKB Produkter AB®, Bromma, Sweden) at a paper speed of 0.5 cm·min^−1. The difference between the position of the core before and during inflation of a sphygmomanometer cuff on the same upper arm to 40 mmHg gave a measure of the diameter changes under a given congestion pressure. Peak heights on the strip-chart recorder were linearly proportional to the movement of the core and were measured manually in units according to standard operating procedures.
After having installed the tripod for hand vein compliance technique and having established a stable initial baseline with […] defined as 100% relaxation, increasing dose-rates of the selective α1-adrenoceptor agonist phenylephrine (Neo-Synephrine®, Abbott Laboratories, North Chicago, USA; dosages: 1.25−≦8000 ng·min^−1) were locally infused to constrict the vein by about 80%. This preconstriction baseline was defined as 0%, and the effect of subsequently administered vasodilators was expressed in percentage changes from the difference between the initial baseline diameter during normal saline and the diameter during stable preconstriction.
Once preconstriction was stable, Substance P (Calbiochem/Novabiochem AG, Läufelfingen, Switzerland) was co-administered until the maximal venodilation was reached (approximately 7-10 minutes). To prevent the peptide from sticking to tubing and syringes, substance P was dissolved in a 4% gelatine solution. Based on the experience of previous experiments in this setting, a Substance P dose rate of (1.5 pmol/min) was selected. If a participant reacted with less than 50% venodilation to the dose of 1.5 pmol/min, the dose was doubled to 3 pmol/min.
Next, Compound D as described herein (250 mg and 25 mg quinine sulphate) or placebo (25 mg quinine sulphate), both dissolved in water for injection and mint syrup, were administered as an oral solution. […]

Data set [2] can be described thus: Safety assessment (ECG, pulse rate, blood pressure, laboratory, adverse events) in healthy male volunteers. The class given is in vivo, human. How it is done: Dose-rates administered locally into the hand vein were intended not to result in any systemic effects which were monitored by repeated measurements of heart rate and blood pressure. Blood pressure was taken before and after every infusion of drugs or solvents (sodium chloride, phenylephrine, Substance P); a 12-lead ECG was monitored continuously up to the end of the hand vein compliance measurements.
Safety was assessed by measuring ECG, pulse rate, blood pressure, haematology, blood chemistry, urinalysis, and by occurrence of adverse events.
as §2

[3] abbreviates: 250 mg oral, among participants.

Where a name gives a salt, the structure may show the parent alone.

The values that follow come from patent US20070082905A1, “PHARMACEUTICAL COMPOSITIONS COMPRISING N-TRIAZOLYMETHYL-PIPERAZINE COMPOUNDS AND METHODS OF USING SAME” (priority 2005, published 2007).

For the molecule `O=C(c1cc(C(F)(F)F)cc(C(F)(F)F)c1)N1CCN(Cc2n[nH]nc2CN2CCOCC2)C[C@H]1Cc1c[nH]c2ccccc12` [Compound D, (2R)-1-[3,5-bis(trifluoromethyl)benzoyl]-2-(1H-indol-3-ylmethyl)-4-{[5-(morpholinomethyl)-2H-1,2,3-triazol-4-yl]methyl}piperazine-dihydrochloride], the “time to peak plasma concentration” value in data set [1] (250 mg oral solution, single dose, 18 healthy participants, mean±SEM) was at most 47 ± 3 min. In addition, in data set [1] (250 mg oral, 24 h after dosing, lower limit of quantification 0.2 ng/ml), the “plasma detectability 24 h after dosing (terminal phase)” value is given as “still detectable in low concentrations in all participants”. In addition, in data set [1] (setting [3]), the “ratio between maximal and minimal value for AUC (inter-individual variability)” value came out at 6.3; the “ratio between maximal and minimal value for Cmax (inter-individual variability)” value was 6.5. Besides, the half-life – broadly, the time needed for the level to fall by half in the phase considered – in data set [1] (male, human, plasma, 250 mg oral solution, single dose, 18 healthy participants, mean±SEM) was 9.9 ± 1.6 h. The AUC(0-inf) in data set [1] (male, human, plasma, 250 mg oral solution, single dose, 18 healthy participants, mean±SEM, read-out: mean AUC0-∞) is 183 ± 22 ng·h/mL. In addition, the Cmax in data set [1] (male, human, plasma, 250 mg oral solution, single dose, 18 healthy participants, mean±SEM, read-out: peak plasma concentration (Cmax)) is 77 ± 9 ng/mL. For the same molecule, the “response to SNP (sodium nitroprusside) at the end of the experiment” value at NK-1 receptor (2 μg/min SNP into hand vein after last Substance P infusion, not different from placebo (p=0.69)) was found to be 92±9%. Moreover, on NK-1 receptor (250 mg oral, 17 healthy participants, mean±SEM, 95% CI 78, 111), the “maximum antagonizing effect (% antagonism of Substance P-induced venodilation)” value came out at 95±8%. Moreover, the “Substance P-induced venodilation after administration (versus placebo)” value on NK-1 receptor (250 mg oral, 17 healthy participants, p<0.001 vs placebo) is given as “markedly decreased”. Also, the “time of maximum antagonizing effect (mean)” value on NK-1 receptor (250 mg oral, 17 participants, mean±SEM, 95% CI 0.96, 1.98) was determined as 1.47 ± 0.24 h. Further, the “mean AUCe (area under the effect-time curve)” value at NK-1 receptor (250 mg oral, 17 participants, mean±SEM, 95% CI 198, 358, p<0.001 vs placebo) worked out at 278±67 %·h. Besides, on NK-1 receptor (250 mg oral, 17 participants, median), the “time of maximum antagonizing effect (median)” value is on record as 1.25 h. Moreover, the “persistence of antagonistic effect relative to plasma concentration” value on NK-1 receptor (250 mg oral, up to 4.25 h after dosing, counter-clockwise hysteresis) is “antagonistic effect persisted throughout the study while plasma concentrations declined”. In addition, in data set [2] (250 mg oral, 19 participants in safety analysis), the serious adverse events entry is on record as “No serious adverse event occurred”. In data set [2] (250 mg oral, single dose), the “changes in heart rate, blood pressure, or ECG parameters” value was “Neither Compound D nor placebo induced significant changes” and the tolerability entry was “well tolerated in all participants”. Further, the “adverse events possibly related to the study drug (number)” value in data set [2] (250 mg oral, mild headache, severe headache, cloudy urine, all resolved) was 3. Also, in data set [2] (4.5 h after administration (baseline 60±2; p=0.14)), the heart rate stood at 63±2 beats/min. Further, the diastolic blood pressure in data set [2] (4.5 h after administration (baseline 68±3; p=0.12)) is listed as 72±2 mmHg. Also, the systolic blood pressure in data set [2] (4.5 h after administration (baseline 124±3; p=0.10)) turned out to be 127±2 mmHg.
